In patent US20240270821A1, “GIP/GLP1/GCG TRI-RECEPTOR AGONISTS AND USES THEREOF” (priority 2023, published 2024):
Where two headings read alike, the source gives them in different places. Starred links: 1 amine or outer side, 2 acyl side, 3 side chain; linkers in the order of their positions; H or OH if unused. Non-standard residues stand in square brackets, D forms with d. Residues, ends and D or L forms follow the SMILES beside them. Groups on a side chain read outwards from the residue. *: point of attachment. C20 diacid = O=C(O)CCCCCCCCCCCCCCCCCCC(=O)*; C18 diacid = O=C(O)CCCCCCCCCCCCCCCCC(=O)*; αMePhe(2-F) = C[C@](N)(Cc1ccccc1F)C(=O)O; γGlu = O=C(O)[C@H](CCC(=O)[*:2])N[*:1]; αMeY = C[C@](N)(Cc1ccc(O)cc1)C(=O)O; 4Pal = N[C@@H](Cc1ccncc1)C(=O)O; αMeL = CC(C)C[C@](C)(N)C(=O)O; αMeS = C[C@](N)(CO)C(=O)O; Orn = NCCC[C@H](N)C(=O)O; AEEA = NCCOCCOCC(=O)O; Aib = CC(C)(N)C(=O)O

Columns and labels:
Format in all cases: cell-based
[1] = target: hGcgR (Homo sapiens, UniProt P47871); experiment: Functional cAMP activation in the presence of 0.1% casein (no HSA); conditions: in the presence of 0.1% casein (no HSA); geometric mean; read-out: Relative cAMP EC50, hGcgR;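 note: intracellular cAMP rise after 30 min at 37 °C, read by HTRF against a cAMP standard curve, scaled from buffer only (0%) to maximal control ligand response (100%)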
hGcgR, sequence (P47871 26-477): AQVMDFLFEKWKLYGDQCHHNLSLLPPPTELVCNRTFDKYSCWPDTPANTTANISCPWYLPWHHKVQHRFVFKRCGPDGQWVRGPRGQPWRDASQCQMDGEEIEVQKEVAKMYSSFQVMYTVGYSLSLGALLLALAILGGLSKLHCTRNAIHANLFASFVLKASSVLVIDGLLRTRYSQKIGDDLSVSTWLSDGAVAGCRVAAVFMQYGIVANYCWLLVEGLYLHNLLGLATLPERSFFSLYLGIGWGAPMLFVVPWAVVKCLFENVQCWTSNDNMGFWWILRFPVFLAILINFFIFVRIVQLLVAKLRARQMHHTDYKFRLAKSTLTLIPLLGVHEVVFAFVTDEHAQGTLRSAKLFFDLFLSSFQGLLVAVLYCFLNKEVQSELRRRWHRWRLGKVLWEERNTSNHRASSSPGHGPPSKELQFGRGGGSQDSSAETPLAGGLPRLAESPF

[2] = target: T1, hGIPR (Homo sapiens, UniProt P48546); experiment: Functional cAMP activity in the presence of 1% HSA; conditions: read-out: cAMP Rel EC50, hGIPR
T1 sequence (P48546 22-466): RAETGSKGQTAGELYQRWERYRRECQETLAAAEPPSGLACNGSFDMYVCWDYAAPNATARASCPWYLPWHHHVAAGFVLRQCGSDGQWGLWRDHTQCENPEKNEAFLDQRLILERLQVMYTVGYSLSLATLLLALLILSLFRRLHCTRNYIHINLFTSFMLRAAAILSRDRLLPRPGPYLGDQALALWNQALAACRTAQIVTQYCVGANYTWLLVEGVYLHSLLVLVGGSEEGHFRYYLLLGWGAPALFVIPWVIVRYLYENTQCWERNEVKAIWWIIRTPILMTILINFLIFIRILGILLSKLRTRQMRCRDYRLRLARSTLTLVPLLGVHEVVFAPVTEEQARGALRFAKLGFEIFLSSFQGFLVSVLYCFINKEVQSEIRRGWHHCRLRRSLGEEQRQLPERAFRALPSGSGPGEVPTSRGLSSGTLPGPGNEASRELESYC

[3] = target: T2, hGLP-1R (Homo sapiens, UniProt P43220); experiment: Functional cAMP activity in the presence of 1% HSA; conditions: read-out: cAMP Rel EC50, hGLP-1R
T2 sequence (P43220 24-463): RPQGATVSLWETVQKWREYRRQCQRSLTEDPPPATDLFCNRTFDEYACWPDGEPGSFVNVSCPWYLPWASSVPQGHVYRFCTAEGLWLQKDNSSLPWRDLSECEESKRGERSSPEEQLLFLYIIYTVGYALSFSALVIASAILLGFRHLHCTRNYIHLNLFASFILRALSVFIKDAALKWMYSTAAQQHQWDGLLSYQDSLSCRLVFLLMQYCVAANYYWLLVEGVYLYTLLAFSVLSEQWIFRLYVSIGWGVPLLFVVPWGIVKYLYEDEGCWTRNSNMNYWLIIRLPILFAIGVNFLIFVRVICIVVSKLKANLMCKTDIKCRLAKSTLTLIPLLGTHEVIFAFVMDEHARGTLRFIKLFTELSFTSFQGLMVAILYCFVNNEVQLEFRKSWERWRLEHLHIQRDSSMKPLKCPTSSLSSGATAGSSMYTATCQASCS

[4] = target: human GcgR (Homo sapiens, UniProt P47871); experiment: Functional cAMP activity in the presence of 1% HSA; conditions: read-out: cAMP Rel EC50, hGcgR
human GcgR, sequence (P47871 26-477): as the sequence (P47871 26-477) above

[5] = target: T2, hGLP-1R; experiment: Functional cAMP activation in the presence of 0.1% casein (no HSA); conditions: in the presence of 0.1% casein (no HSA); geometric mean; read-out: Relative cAMP EC50, hGLP-1R;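 for Relative cAMP EC50, hGIPR: intracellular cAMP rise after 30 min at 37 °C read by HTRF against a standard curve, scaled between buffer alone (0%) and top control ligand concentration (100%), four-parameter fit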;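 for Relative cAMP EC50, hGLP-1R: intracellular cAMP rise after 30 min at 37 °C read by HTRF, normalized between buffer only (0%) and maximal control ligand (100%), four-parameter variable-slope fit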
[6] = target: T1, hGIPR; experiment: as above; conditions: in the presence of 0.1% casein (no HSA); geometric mean; read-out: Relative cAMP EC50, hGIPR

SMILES | EC50 [1] [nM] | EC50 [2] [nM] | EC50 [3] [nM] | EC50 [4] [nM] | EC50 [5] [nM] | EC50 [6] [nM] | EC50 ([2]; HEK-293 clonal cells expressing hGIPR, in the presence of 1% HSA, geometric mean of relative EC50) [nM] | EC50 ([3]; HEK-293 clonal cells expressing hGLP-1R, in the presence of 1% HSA, geometric mean of relative EC50) [nM] | EC50 ([4]; HEK-293 clonal cells expressing hGcgR, in the presence of 1% HSA, geometric mean of relative EC50) [nM]
CC[C@H](C)[C@H](NC(=O)[C@H](Cc1ccccc1)NC(=O)[C@H](CCCN)NC(=O)C(C)(C)NC(=O)[C@H](CCC(N)=O)NC(=O)[C@H](C)NC(=O)[C@H](CCCCNC(=O)COCCOCCNC(=O)CC[C@H](NC(=O)CCCCCCCCCCCCCCCCC(=O)O)C(=O)O)NC(=O)[C@H](CCCN)NC(=O)[C@H](CC(=O)O)NC(=O)[C@H](CC(C)C)NC(=O)[C@](C)(CC(C)C)NC(=O)[C@@H](NC(=O)[C@](C)(CO)NC(=O)[C@H](Cc1ccncc1)NC(=O)[C@H](CC(=O)O)NC(=O)[C@H](CO)NC(=O)[C@@H](NC(=O)[C@](C)(Cc1ccccc1F)NC(=O)[C@@H](NC(=O)CNC(=O)[C@H](CCC(N)=O)NC(=O)C(C)(C)NC(=O)[C@@H](N)Cc1ccc(O)cc1)[C@@H](C)O)[C@@H](C)O)[C@@H](C)CC)C(=O)N[C@H](CCC(=O)O)C(=O)N[C@@](C)(Cc1ccc(O)cc1)C(=O)N[C@@H](CC(C)C)C(=O)N[C@@H](CC(C)C)C(=O)N[C@@H](CCC(=O)O)C(=O)NCC(=O)NCC(=O)N1CCC[C@H]1C(=O)N[C@@H](CO)C(=O)N[C@@H](CO)C(=O)NCC(=O)N[C@@H](CCC(=O)O)C(=O)N1CCC[C@H]1C(=O)N1CCC[C@H]1C(=O)N1CCC[C@H]1C(=O)N[C@@H](CCC(=O)O)C(N)=O [Example 377] (H-Y[Aib]QGT[αMePhe(2-F)]TSD[4Pal][αMeS]I[αMeL]LD[Orn]K([AEEA-γGlu-C18 diacid])AQ[Aib][Orn]FI[dE][αMeY]LLEGGPSSGEPPPE-NH2) | 1.36 | 11.1 | 29.4 | 163 | 0.367 | 0.0377 | – | – | –
CC[C@H](C)[C@H](NC(=O)[C@H](Cc1ccccc1)NC(=O)[C@H](CCCN)NC(=O)C(C)(C)NC(=O)[C@H](CCC(N)=O)NC(=O)[C@H](C)NC(=O)[C@H](CCCCNC(=O)COCCOCCNC(=O)CC[C@H](NC(=O)CCCCCCCCCCCCCCCCC(=O)O)C(=O)O)NC(=O)[C@H](CCCN)NC(=O)[C@H](CC(=O)O)NC(=O)[C@H](CC(C)C)NC(=O)[C@](C)(CC(C)C)NC(=O)[C@@H](NC(=O)[C@](C)(CO)NC(=O)[C@H](Cc1ccncc1)NC(=O)[C@H](CC(=O)O)NC(=O)[C@H](CO)NC(=O)[C@@H](NC(=O)[C@](C)(Cc1ccccc1F)NC(=O)[C@@H](NC(=O)CNC(=O)[C@H](CCC(N)=O)NC(=O)C(C)(C)NC(=O)[C@@H](N)Cc1ccc(O)cc1)[C@@H](C)O)[C@@H](C)O)[C@@H](C)CC)C(=O)N[C@H](CCC(=O)O)C(=O)N[C@@](C)(Cc1ccc(O)cc1)C(=O)N[C@@H](CC(C)C)C(=O)N[C@@H](CC(C)C)C(=O)N[C@@H](CCC(=O)O)C(=O)NCC(=O)NCC(=O)N1CCC[C@H]1C(=O)N[C@@H](CO)C(=O)N[C@@H](CO)C(=O)NC(C)(C)C(=O)N[C@@H](CCC(=O)O)C(=O)N1CCC[C@H]1C(=O)N1CCC[C@H]1C(=O)N1CCC[C@H]1C(=O)N[C@@H](CCC(=O)O)C(N)=O [Example 380] (H-Y[Aib]QGT[αMePhe(2-F)]TSD[4Pal][αMeS]I[αMeL]LD[Orn]K([AEEA-γGlu-C18 diacid])AQ[Aib][Orn]FI[dE][αMeY]LLEGGPSS[Aib]EPPPE-NH2) | 1.17 | – | – | – | 0.354 | 0.0346 | 7.77 | 30.6 | 150
CC[C@H](C)[C@H](NC(=O)[C@H](CC(C)C)NC(=O)[C@H](Cc1ccc(O)cc1)NC(=O)[C@H](CCC(=O)O)NC(=O)[C@@H](NC(=O)[C@H](Cc1ccccc1)NC(=O)[C@H](C)NC(=O)C(C)(C)NC(=O)[C@H](CCC(N)=O)NC(=O)[C@H](C)NC(=O)[C@H](CCCCNC(=O)COCCOCCNC(=O)COCCOCCNC(=O)CC[C@H](NC(=O)CCCCCCCCCCCCCCCCCCC(=O)O)C(=O)O)NC(=O)[C@H](CCCCN)NC(=O)[C@H](CC(=O)O)NC(=O)[C@H](CC(C)C)NC(=O)[C@](C)(CC(C)C)NC(=O)[C@@H](NC(=O)[C@](C)(CO)NC(=O)[C@H](Cc1ccc(O)cc1)NC(=O)[C@H](CC(=O)O)NC(=O)[C@H](CO)NC(=O)[C@@H](NC(=O)[C@H](Cc1ccccc1)NC(=O)[C@@H](NC(=O)CNC(=O)[C@H](CCC(N)=O)NC(=O)C(C)(C)NC(=O)[C@@H](N)Cc1ccc(O)cc1)[C@@H](C)O)[C@@H](C)O)[C@@H](C)CC)[C@@H](C)CC)C(=O)N[C@@H](CCC(=O)O)C(=O)NCC(=O)NCC(=O)N1CCC[C@H]1C(=O)N[C@@H](CO)C(=O)N[C@@H](CO)C(=O)NCC(=O)N[C@@H](C)C(=O)N1CCC[C@H]1C(=O)N1CCC[C@H]1C(=O)N1CCC[C@H]1C(=O)N[C@@H](CO)C(N)=O [Example 382] (H-Y[Aib]QGTFTSDY[αMeS]I[αMeL]LDKK([AEEA-AEEA-γGlu-C20 diacid])AQ[Aib]AFIEYLIEGGPSSGAPPPS-NH2) | 3.72 | 17.7 | 61.5 | 1050 | 0.291 | 0.0368 | – | – | –
CC[C@H](C)[C@H](NC(=O)[C@H](Cc1ccccc1)NC(=O)[C@H](C)NC(=O)C(C)(C)NC(=O)[C@H](CCC(N)=O)NC(=O)[C@H](C)NC(=O)[C@H](CCCCNC(=O)COCCOCCNC(=O)COCCOCCNC(=O)CC[C@H](NC(=O)CCCCCCCCCCCCCCCCCCC(=O)O)C(=O)O)NC(=O)[C@H](CCCCN)NC(=O)[C@H](CC(=O)O)NC(=O)[C@H](CC(C)C)NC(=O)[C@H](CC(C)C)NC(=O)[C@@H](NC(=O)[C@H](CO)NC(=O)[C@H](Cc1ccc(O)cc1)NC(=O)[C@H](CC(=O)O)NC(=O)[C@H](CO)NC(=O)[C@@H](NC(=O)[C@](C)(Cc1ccccc1F)NC(=O)[C@@H](NC(=O)CNC(=O)[C@H](CCC(N)=O)NC(=O)C(C)(C)NC(=O)[C@@H](N)Cc1ccc(O)cc1)[C@@H](C)O)[C@@H](C)O)[C@@H](C)CC)C(=O)N[C@@H](CCC(=O)O)C(=O)N[C@@H](Cc1ccc(O)cc1)C(=O)N[C@@H](CC(C)C)C(=O)N[C@@H](CC(C)C)C(=O)N[C@@H](CCC(=O)O)C(=O)NCC(=O)NCC(=O)N1CCC[C@H]1C(=O)N[C@@H](CO)C(=O)N[C@@H](CO)C(=O)NCC(=O)N[C@@H](C)C(=O)N1CCC[C@H]1C(=O)N1CCC[C@H]1C(=O)N1CCC[C@H]1C(=O)N[C@@H](CO)C(N)=O [Example 385] | 1 | 4.03 | 86.1 | 700 | 0.235 | 0.0141 | – | – | –
CC[C@H](C)[C@H](NC(=O)[C@H](Cc1ccccc1)NC(=O)[C@H](C)NC(=O)C(C)(C)NC(=O)[C@H](CCC(N)=O)NC(=O)[C@H](C)NC(=O)[C@H](CCCCNC(=O)COCCOCCNC(=O)COCCOCCNC(=O)CC[C@H](NC(=O)CCCCCCCCCCCCCCCCCCC(=O)O)C(=O)O)NC(=O)[C@H](CCCCN)NC(=O)[C@H](CC(=O)O)NC(=O)[C@H](CC(C)C)NC(=O)[C@H](CC(C)C)NC(=O)[C@@H](NC(=O)[C@H](CO)NC(=O)[C@H](Cc1ccc(O)cc1)NC(=O)[C@H](CC(=O)O)NC(=O)[C@H](CO)NC(=O)[C@@H](NC(=O)[C@](C)(Cc1ccccc1F)NC(=O)[C@@H](NC(=O)CNC(=O)[C@H](CCC(N)=O)NC(=O)C(C)(C)NC(=O)[C@@H](N)Cc1ccc(O)cc1)[C@@H](C)O)[C@@H](C)O)[C@@H](C)CC)C(=O)N[C@@H](CCC(=O)O)C(=O)N[C@@H](Cc1ccc(O)cc1)C(=O)N[C@@H](CC(C)C)C(=O)N[C@@H](CC(C)C)C(=O)N[C@@H](CCC(=O)O)C(=O)NCC(=O)NCC(=O)N1CCC[C@H]1C(=O)N[C@@H](CO)C(=O)N[C@@H](CO)C(=O)NCC(=O)N[C@@H](C)C(=O)N1CCC[C@H]1C(=O)N1CCC[C@H]1C(=O)N1CCC[C@H]1C(=O)N[C@@H](CCC(=O)O)C(N)=O [Example 386] (H-Y[Aib]QGT[αMePhe(2-F)]TSDYSILLDKK([AEEA-AEEA-γGlu-C20 diacid])AQ[Aib]AFIEYLLEGGPSSGAPPPE-NH2) | 1.7 | 5.62 | 98.6 | 734 | 0.278 | 0.0156 | – | – | –
